From patent publication US8871753B2, “Macrocyclic compounds and their use as kinase inhibitors” (Incyte Corporation, priority 2008, dated 2014)
Structures can show the parent of a compound that is named as a salt.

What was measured:
Assay type in all cases: biochemical
[1] = target: T1, Recombinant Human Anaplastic Lymphoma Kinase (Homo sapiens, UniProt Q9UM73); assay: ALK HTRF kinase assay; details: 90 μM ATP; for ALK % of inhibition at a concentration of 500 nM or 1 mM: compound at 500 nM or 1 mM
T1 construct: purchased Invitrogen, Carlsbad, Calif
Summary of the method: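 Recombinant human ALK phosphorylated a biotinylated synthetic peptide. Phosphotyrosine was detected by TR-FRET between a Eu-labelled anti-phosphotyrosine antibody and streptavidin-allophycocyanin. IC50 values came from fitting signal against inhibitor concentration to a four-parameter logistic equation with variable Hill slope.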

[2] = target: T2, human JAK1 (a.a. 837-1142) (Homo sapiens, UniProt P23458); assay: In vitro JAK kinase assay (HTRF, phosphorylation of a biotinylated peptide), JAK1; details: method AA1 (90 μM ATP) or AA2 (1000 μM ATP), not stated per value; read-out: JAK1 IC50
T2 construct: human JAK1 (a.a. 837-1142); His tag (N); made in house; host or cells: insect cells (baculovirus)
Summary of the method: (§1)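 Phosphorylation of a biotinylated peptide by the JAK kinase domain, detected by HTRF with Eu-Py20 and SA-APC. ATP was 90 μM for JAK1, 30 μM for JAK2 and 3 μM for JAK3. Reactions ran 1 h at room temperature and were stopped with EDTA, followed by 40 min antibody binding.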

[3] = target: T3, human JAK3 (a.a. 781-1124) (Homo sapiens, UniProt P52333); assay: In vitro JAK kinase assay (HTRF, phosphorylation of a biotinylated peptide), JAK3; details: method AA1 (3 μM ATP) or AA2 (1000 μM ATP), not stated per value
T3 construct: JAK3 (a.a. 781-1124); His tag (N); made in house; host or cells: insect cells (baculovirus)
Summary of the method: as §1

[4] = target: TYK2 (Homo sapiens, UniProt P29597); assay: TYK2 kinase inhibition (Table A1)
[5] = target: T4, human JAK2 (a.a. 828-1132) (Homo sapiens, UniProt O60674); assay: In vitro JAK kinase assay (HTRF, phosphorylation of a biotinylated peptide), JAK2; details: method AA1 (30 μM ATP) or AA2 (1000 μM ATP), not stated per value
T4 construct: JAK2 (a.a. 828-1132); His tag (N); made in house; host or cells: insect cells (baculovirus)
Summary of the method: as §1

T2 sequence (P23458 849-1154): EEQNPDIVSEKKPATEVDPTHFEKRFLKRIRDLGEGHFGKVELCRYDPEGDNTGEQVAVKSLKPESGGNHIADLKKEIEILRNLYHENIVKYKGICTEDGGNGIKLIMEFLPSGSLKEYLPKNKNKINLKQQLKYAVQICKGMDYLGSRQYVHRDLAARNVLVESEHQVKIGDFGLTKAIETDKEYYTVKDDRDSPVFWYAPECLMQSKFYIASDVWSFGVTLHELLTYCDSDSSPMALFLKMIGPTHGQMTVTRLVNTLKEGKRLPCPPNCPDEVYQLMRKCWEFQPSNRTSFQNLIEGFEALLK
Sequence of TYK2 (P29597 whole entry): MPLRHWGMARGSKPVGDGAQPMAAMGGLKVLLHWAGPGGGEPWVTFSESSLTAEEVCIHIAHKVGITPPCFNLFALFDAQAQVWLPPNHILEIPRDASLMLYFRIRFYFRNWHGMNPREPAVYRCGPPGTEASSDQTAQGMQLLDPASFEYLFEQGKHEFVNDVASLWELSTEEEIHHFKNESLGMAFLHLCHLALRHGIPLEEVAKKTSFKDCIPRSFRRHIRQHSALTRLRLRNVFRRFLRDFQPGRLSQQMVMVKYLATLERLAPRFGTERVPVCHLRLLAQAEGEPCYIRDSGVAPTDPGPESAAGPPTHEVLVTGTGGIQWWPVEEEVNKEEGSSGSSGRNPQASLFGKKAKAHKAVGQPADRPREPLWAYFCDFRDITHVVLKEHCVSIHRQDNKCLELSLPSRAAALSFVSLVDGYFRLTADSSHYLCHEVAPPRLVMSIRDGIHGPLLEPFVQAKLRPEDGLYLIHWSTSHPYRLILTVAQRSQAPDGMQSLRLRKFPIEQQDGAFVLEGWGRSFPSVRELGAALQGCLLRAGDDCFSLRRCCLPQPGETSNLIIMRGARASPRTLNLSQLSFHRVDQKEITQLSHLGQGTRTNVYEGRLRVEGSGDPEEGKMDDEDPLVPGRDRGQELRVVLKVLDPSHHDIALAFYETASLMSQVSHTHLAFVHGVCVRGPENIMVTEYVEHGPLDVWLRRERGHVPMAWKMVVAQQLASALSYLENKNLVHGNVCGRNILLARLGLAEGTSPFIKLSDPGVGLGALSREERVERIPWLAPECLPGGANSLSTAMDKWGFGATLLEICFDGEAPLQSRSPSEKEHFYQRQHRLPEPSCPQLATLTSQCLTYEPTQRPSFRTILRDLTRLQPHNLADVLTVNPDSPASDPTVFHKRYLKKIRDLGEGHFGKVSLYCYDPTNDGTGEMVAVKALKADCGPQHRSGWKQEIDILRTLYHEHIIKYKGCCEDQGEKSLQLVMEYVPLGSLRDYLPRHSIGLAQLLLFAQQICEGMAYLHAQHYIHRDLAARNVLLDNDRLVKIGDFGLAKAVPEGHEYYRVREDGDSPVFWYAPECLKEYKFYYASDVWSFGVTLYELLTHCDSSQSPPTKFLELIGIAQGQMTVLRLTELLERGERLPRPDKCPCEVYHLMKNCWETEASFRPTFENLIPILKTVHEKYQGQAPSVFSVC
T1 sequence (Q9UM73 19-1620): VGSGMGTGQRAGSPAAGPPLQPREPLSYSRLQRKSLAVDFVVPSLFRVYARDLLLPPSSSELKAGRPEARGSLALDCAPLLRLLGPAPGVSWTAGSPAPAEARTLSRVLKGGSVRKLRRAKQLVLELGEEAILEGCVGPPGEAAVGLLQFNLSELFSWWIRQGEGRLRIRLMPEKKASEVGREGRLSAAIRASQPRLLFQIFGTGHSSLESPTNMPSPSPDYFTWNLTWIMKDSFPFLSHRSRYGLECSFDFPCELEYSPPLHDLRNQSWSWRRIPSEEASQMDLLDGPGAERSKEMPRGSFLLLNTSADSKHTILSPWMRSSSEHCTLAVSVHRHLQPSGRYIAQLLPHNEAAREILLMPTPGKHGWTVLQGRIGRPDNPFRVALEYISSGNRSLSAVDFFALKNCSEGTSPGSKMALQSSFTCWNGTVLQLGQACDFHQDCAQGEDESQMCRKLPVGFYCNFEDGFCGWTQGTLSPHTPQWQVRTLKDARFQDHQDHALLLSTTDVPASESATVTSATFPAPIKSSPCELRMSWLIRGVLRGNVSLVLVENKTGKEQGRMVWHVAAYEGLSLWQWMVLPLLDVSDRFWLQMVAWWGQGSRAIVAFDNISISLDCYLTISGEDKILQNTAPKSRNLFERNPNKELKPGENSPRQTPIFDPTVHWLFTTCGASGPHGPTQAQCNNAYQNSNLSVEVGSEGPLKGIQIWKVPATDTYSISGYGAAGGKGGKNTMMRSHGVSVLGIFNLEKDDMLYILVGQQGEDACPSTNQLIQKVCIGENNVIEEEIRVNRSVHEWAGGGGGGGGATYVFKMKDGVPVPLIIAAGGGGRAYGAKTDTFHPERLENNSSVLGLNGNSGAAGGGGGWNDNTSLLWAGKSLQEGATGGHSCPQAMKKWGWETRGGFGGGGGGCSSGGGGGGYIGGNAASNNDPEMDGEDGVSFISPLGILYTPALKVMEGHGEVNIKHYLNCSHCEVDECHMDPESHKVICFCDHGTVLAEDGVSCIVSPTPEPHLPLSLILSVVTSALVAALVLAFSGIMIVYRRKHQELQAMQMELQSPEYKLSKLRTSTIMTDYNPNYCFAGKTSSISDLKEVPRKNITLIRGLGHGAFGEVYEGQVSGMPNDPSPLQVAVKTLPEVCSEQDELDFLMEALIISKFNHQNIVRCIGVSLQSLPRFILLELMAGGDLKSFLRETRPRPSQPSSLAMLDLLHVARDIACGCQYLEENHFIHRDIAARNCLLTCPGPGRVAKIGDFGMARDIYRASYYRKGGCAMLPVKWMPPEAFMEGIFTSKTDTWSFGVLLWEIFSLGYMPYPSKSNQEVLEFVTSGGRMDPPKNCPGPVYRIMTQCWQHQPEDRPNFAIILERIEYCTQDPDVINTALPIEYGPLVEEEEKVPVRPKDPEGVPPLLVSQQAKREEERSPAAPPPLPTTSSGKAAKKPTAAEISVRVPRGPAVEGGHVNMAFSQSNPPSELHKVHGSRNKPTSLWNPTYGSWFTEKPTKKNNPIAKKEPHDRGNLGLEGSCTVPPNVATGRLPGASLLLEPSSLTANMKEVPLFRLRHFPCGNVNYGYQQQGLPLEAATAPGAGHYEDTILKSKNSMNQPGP
T4 sequence (O60674 828-1132): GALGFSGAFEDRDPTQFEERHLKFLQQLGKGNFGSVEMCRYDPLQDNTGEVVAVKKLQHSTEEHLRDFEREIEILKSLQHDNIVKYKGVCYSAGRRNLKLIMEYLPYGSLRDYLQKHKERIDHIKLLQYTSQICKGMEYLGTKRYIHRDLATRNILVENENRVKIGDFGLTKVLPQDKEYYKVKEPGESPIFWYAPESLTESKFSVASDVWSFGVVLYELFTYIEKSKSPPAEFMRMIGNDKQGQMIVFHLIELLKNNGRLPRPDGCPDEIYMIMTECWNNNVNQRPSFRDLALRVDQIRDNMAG
T3 sequence (P52333 781-1124): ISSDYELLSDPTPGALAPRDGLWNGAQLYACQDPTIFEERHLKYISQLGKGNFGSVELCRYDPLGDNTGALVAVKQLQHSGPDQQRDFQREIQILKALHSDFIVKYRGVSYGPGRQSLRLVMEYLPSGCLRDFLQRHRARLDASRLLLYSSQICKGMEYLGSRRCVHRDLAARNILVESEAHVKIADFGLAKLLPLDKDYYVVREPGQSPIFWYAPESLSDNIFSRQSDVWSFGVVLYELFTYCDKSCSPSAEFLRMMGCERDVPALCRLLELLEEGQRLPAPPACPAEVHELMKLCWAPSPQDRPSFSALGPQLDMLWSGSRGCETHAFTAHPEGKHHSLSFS

ALK % of inhibition at a concentration of 500 nM or 1 mM [1]	IC50 [2]	IC50 [3]	IC50 [4]	IC50 [5]	IC50 [1]	SMILES
5%	14 nM	104 nM	50 nM	21 nM	–	O=C(COc1ccc2cc1CCc1cccc(c1)Nc1ncc(Cl)c(n1)N2)N1CCN(C(=O)Nc2ccc(Cl)nc2)CC1 [Example A10, 4-(6-Chloropyridin-3-yl)-4-({[6-chloro-2,4,8,22-tetraazatetracyclo[14.3.1.1(3,7).1(9,13)]docosa-1(20),3(22),4,6,9(21),10,12,16,18-nonaen-12-yl]oxy}acetyl)piperazine-1-carboxamide bis(trifluoroacetate)]
12%	3.4 nM	16 nM	9.5 nM	5.6 nM	–	Cn1ccc2c(NC(=O)N3CCN(C(=O)COc4ccc5cc4CCc4cccc(c4)Nc4ncc(Cl)c(n4)N5)CC3)cccc21 [Example A11, 4-({[6-Chloro-2,4,8,22-tetraazatetracyclo[14.3.1.1(3,7).1(9,13)]docosa-1(20),3(22),4,6,9(21),10,12,16,18-nonaen-12-yl]oxy}acetyl)-N-(1-methyl-1H-indol-4-yl)piperazine-1-carboxamide trifluoroacetate]
17%	9.4 nM	65 nM	30 nM	11 nM	–	CCNC(=O)N1CCN(C(=O)COc2ccc3cc2CCc2cccc(c2)Nc2ncc(Cl)c(n2)N3)CC1 [Example A12, trifluoroacetate]
20%	1 nM	44 nM	42 nM	2.6 nM	–	O=C(COc1ccc2cc1CCc1cccc(c1)Nc1ncc(Cl)c(n1)N2)N1CCN(C(=O)Nc2ccccc2)CC1 [Example A13, 4-({[6-Chloro-2,4,8,22-tetraazatetracyclo[14.3.1.1(3,7).1(9,13)]docosa-1(20),3(22),4,6,9(21),10,12,16,18-nonaen-12-yl]oxy}acetyl)-N-phenylpiperazine-1-carboxamide trifluoroacetate]
0%	74 nM	144 nM	116 nM	42 nM	–	Clc1cnc2nc1Nc1ccc(OC3CCCC3)c(c1)CCc1cccc(c1)N2 [Example A14, 6-Chloro-12-(cyclopentyloxy)-2,4,8,22-tetraazatetracyclo[14.3.1.1(3,7).1(9,13)]docosa-1(20),3(22),4,6,9(21),10,12,16,18-nonaene trifluoroacetate]
79%	2.9 nM	4.8 nM	3.4 nM	1.1 nM	–	NC(=O)COc1ccc2cc1CCc1cccc(c1)Nc1ncc(Cl)c(n1)N2 [Example A15, 2-{[6-Chloro-2,4,8,22-tetraazatetracyclo[14.3.1.1(3,7).1(9,13)]docosa-1(20),3(22),4,6,9(21),10,12,16,18-nonaen-12-yl]oxy}acetamide trifluoroacetate]
21%	12 nM	60 nM	32 nM	10 nM	–	CC(Oc1ccc2cc1CCc1cccc(c1)Nc1ncc(Cl)c(n1)N2)C(=O)Nc1ccccc1 (stereo not drawn) [Example A16, 2-{[6-Chloro-2,4,8,22-tetraazatetracyclo[14.3.1.1(3,7).1(9,13)]docosa-1(20),3(22),4,6,9(21),10,12,16,18-nonaen-12-yl]oxy}-N-phenylpropanamide trifluoroacetate]
59%	4.5 nM	23 nM	11 nM	3.3 nM	–	O=C(COc1ccc2cc1CCc1cccc(c1)Nc1ncc(Cl)c(n1)N2)Nc1ccccc1 [Example A18, 2-{[6-Chloro-2,4,8,22-tetraazatetracyclo[14.3.1.1(3,7).1(9,13)]docosa-1(20),3(22),4,6,9(21),10,12,16,18-nonaen-12-yl]oxy}-N-phenylacetamide trifluoroacetate]
17%	12 nM	78 nM	27 nM	8.2 nM	–	CC(=O)N1CCN(C(=O)COc2ccc3cc2CCc2cccc(c2)Nc2ncc(Cl)c(n2)N3)CC1 [Example A20, 12-[2-(4-Acetylpiperazin-1-yl)-2-oxoethoxy]-6-chloro-2,4,8,22-tetraazatetracyclo[14.3.1.1(3,7).1(9,13)]docosa-1(20),3(22),4,6,9(21),10,12,16,18-nonaene trifluoroacetate]
65%	57 nM	26 nM	98 nM	6.2 nM	–	COc1cc2cc(c1)Nc1nc(ncc1Cl)Nc1cccc(c1)CC2 [Example A21, 6-Chloro-11-methoxy-2,4,8,22-tetraazatetracyclo[14.3.1.1(3,7).1(9,13)]docosa-1(20),3(22),4,6,9(21),10,12,16,18-nonaene trifluoroacetate]
54%	11 nM	10 nM	22 nM	6.2 nM	–	Oc1cc2cc(c1)Nc1nc(ncc1Cl)Nc1cccc(c1)CC2 [Example A22, 6-Chloro-2,4,8,22-tetraazatetracyclo[14.3.1.1(3,7).1(9,13)]docosa-1(20),3(22),4,6,9(21),10,12,16,18-nonaen-11-ol trifluoroacetate]
33%	12 nM	22 nM	37 nM	1 nM	–	NC(=O)COc1cc2cc(c1)Nc1nc(ncc1Cl)Nc1cccc(c1)CC2 [Example A23, 2-{[6-Chloro-2,4,8,22-tetraazatetracyclo[14.3.1.1(3,7).1(9,13)]docosa-1(20),3(22),4,6,9(21),10,12,16,18-nonaen-11-yl]oxy}acetyl)acetamide trifluoroacetate]
11%	47 nM	58 nM	139 nM	4.3 nM	–	O=C(COc1cc2cc(c1)Nc1nc(ncc1Cl)Nc1cccc(c1)CC2)Nc1ccccc1 [Example A24, 2-{[6-Chloro-2,4,8,22-tetraazatetracyclo[14.3.1.1(3,7).1(9,13)]docosa-1(20),3(22),4,6,9(21),10,12,16,18-nonaen-11-yl]oxy}-N-phenylacetamide trifluoroacetate]
–	36 nM	9.2 nM	45 nM	11 nM	350 nM	Oc1ccc2cc1Nc1nc(ncc1Cl)Nc1cccc(c1)CC2 [Example A26, 6-Chloro-2,4,8,22-tetraazatetracyclo[14.3.1.1(3,7).1(9,13)]docosa-1(20),3(22),4,6,9(21),10,12,16,18-nonaen-10-ol trifluoroacetate]
21%	61 nM	124 nM	43 nM	56 nM	–	CC(C)(C)OC(=O)N1CCC(C(=O)Nc2ccc3cc2CCc2cccc(c2)Nc2ncc(Cl)c(n2)N3)CC1 [Example A27, tert-Butyl 4-({[6-chloro-2,4,8,22-tetraazatetracyclo[14.3.1.1(3,7).1(9,13)]docosa-1(20),3(22),4,6,9(21),10,12,16,18-nonaen-12-yl]amino}carbonyl)piperidine-1-carboxylate trifluoroacetate]
30%	56 nM	99 nM	175 nM	61 nM	–	O=C(Nc1ccc2cc1CCc1cccc(c1)Nc1ncc(Cl)c(n1)N2)C1CCNCC1 [Example A28, N-[6-Chloro-2,4,8,22-tetraazatetracyclo[14.3.1.1(3,7).1(9,13)]docosa-1(20), 3(22),4,6,9(21),10,12,16,18-nonaen-12-yl]piperidine-4-carboxamide bis(trifluoroacetate)]
30%	42 nM	31 nM	65 nM	31 nM	–	CC(=O)N1CCC(C(=O)Nc2ccc3cc2CCc2cccc(c2)Nc2ncc(Cl)c(n2)N3)CC1 [Example A29, 1-Acetyl-N-[6-chloro-2,4,8,22-tetraazatetracyclo[14.3.1.1(3,7).1(9,13)]docosa-1(20),3(22),4,6,9(21),10,12,16,18-nonaen-12-yl]piperidine-4-carboxamide trifluoroacetate]
34%	28 nM	110 nM	84 nM	45 nM	–	O=C(Nc1ccc2cc1CCc1cccc(c1)Nc1ncc(Cl)c(n1)N2)C1CCN(C(=O)c2ccccc2)CC1 [Example A30, 1-Benzoyl-N-[6-chloro-2,4,8,22-tetraazatetracyclo[14.3.1.1(3,7).1(9,13)]docosa-1(20),3(22),4,6,9(21),10,12,16,18-nonaen-12-yl]piperidine-4-carboxamide trifluoroacetate]
